From ChEMBL document CHEMBL5512674, “Novel Acyl Thiourea-Based Hydrophobic Tagging Degraders Exert Potent Anti-Influenza Activity through Two Distinct Endonuclease Polymerase Acidic-Targeted Degradation Pathways” (J Med Chem, 2024)
The source made the active and inactive calls. The rule behind the calls is not given here.

Legend:
[1] = Half life in human plasma by LC-MS/MS analysis; assay type: ADME, cell-free
[2] = Cytotoxicity against human HEK293T cells assessed as reduction in cell viability incubated for 48 hrs by CCK-8 assay; assay type: toxicity, cell-based, HEK-293T
[3] = Stability in human plasma assessed as compound remaining measured after 15 mins by LC-MS/MS analysis; assay type: ADME, cell-free; details: read-out: Stability
[4] = target: T1, von Hippel-Lindau disease tumor suppressor/Polymerase acidic protein (Influenza A virus (A/Puerto Rico/8/1934(H1N1))) (UniProt P03433+P40337); experiment: PROTAC activity at Influenza A virus A/WSN/33(H1N1) flag tagged Polymerase acidic protein/VHL (unknown origin) expressed in HEK293T cells assessed as degradation of PA expression incubated for 2 to 10 hrs in presence of CHX by Western blotting analysis; assay type: cell-based; details: time 2-10 hrs
[5] = Cytotoxicity against dog MDCK cells assessed as reduction in cell viability incubated for 48 hrs by CCK-8 assay; assay type: toxicity, cell-based, Canis lupus familiaris
[6] = Intrinsic clearance in dog liver microsomes preincubated for 5 mins followed by NADPH addition and measured for 45 mins by LC-MS analysis; assay type: ADME, Canis lupus familiaris, Microsome; details: time 50 min, read-out: CLH
[7] = Hepatic clearance in dog liver microsomes preincubated for 5 mins followed by NADPH addition and measured for 45 mins by LC-MS analysis; assay type: ADME, Canis lupus familiaris, Microsome; details: time 50 min
[8] = Hepatic extraction ratio in mouse liver microsomes preincubated for 5 mins followed by NADPH addition and measured for 45 mins by LC-MS analysis; assay type: ADME, Microsome; details: time 50 min, read-out: ERH
[9] = Intrinsic clearance in mouse liver microsomes preincubated for 5 mins followed by NADPH addition and measured for 45 mins by LC-MS analysis; assay type: ADME, Microsome; details: time 50 min, read-out: CLH
[10] = target: T1, von Hippel-Lindau disease tumor suppressor/Polymerase acidic protein (Influenza A virus (A/Puerto Rico/8/1934(H1N1))); experiment: PROTAC activity at Influenza A virus A/WSN/33(H1N1) flag tagged Polymerase acidic protein/VHL (unknown origin) expressed in HEK293T cells assessed as degradation of PA expression at 5 uM incubated for 24 hrs in presence of dipeptide RA by Western blotting analysis; assay type: cell-based
[11] = target: von Hippel-Lindau disease tumor suppressor/Polymerase basic protein 1 (Influenza A virus (strain A/Puerto Rico/8/1934 H1N1)) (UniProt P03431+P40337); experiment: PROTAC activity at Influenza A virus A/WSN/33(H1N1) flag tagged Polymerase basic protein 1/VHL (unknown origin) expressed in HEK293T cells assessed as degradation of PB1 expression at 10 ug/ml incubated for 24 hrs by Western blotting analysis; assay type: cell-based; details: dose 10.0 µg/ml
Sequence of von Hippel-Lindau disease tumor suppressor/Polymerase basic protein 1 (Influenza A virus (strain A/Puerto Rico/8/1934 H1N1)) (P03431 whole entry, looked up): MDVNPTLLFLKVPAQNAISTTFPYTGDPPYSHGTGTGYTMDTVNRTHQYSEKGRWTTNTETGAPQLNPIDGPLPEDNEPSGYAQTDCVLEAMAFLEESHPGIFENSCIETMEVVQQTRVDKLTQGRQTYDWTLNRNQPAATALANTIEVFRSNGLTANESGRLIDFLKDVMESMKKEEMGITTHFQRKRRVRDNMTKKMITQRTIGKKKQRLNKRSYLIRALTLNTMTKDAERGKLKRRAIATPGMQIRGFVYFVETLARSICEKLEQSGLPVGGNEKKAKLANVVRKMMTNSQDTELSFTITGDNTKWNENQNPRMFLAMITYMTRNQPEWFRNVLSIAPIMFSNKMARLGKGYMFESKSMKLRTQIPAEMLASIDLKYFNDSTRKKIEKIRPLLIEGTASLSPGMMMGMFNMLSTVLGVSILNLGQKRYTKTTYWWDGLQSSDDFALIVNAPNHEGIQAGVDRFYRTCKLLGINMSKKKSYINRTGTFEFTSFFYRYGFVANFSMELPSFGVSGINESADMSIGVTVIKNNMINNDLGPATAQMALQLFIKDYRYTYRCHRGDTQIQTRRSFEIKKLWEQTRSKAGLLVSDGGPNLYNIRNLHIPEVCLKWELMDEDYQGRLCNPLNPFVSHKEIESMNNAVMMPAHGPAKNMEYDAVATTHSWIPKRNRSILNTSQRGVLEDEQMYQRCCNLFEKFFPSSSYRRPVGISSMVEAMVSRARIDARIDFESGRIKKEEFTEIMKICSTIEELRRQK
Sequence of von Hippel-Lindau disease tumor suppressor/Polymerase basic protein 1 (Influenza A virus (strain A/Puerto Rico/8/1934 H1N1)) (P40337 whole entry, looked up): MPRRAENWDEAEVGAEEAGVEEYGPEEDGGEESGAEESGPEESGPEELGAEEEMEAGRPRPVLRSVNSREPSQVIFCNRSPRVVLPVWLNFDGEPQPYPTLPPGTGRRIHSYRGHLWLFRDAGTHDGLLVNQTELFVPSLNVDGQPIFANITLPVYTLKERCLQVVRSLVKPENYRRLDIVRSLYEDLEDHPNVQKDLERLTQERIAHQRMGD

[12] = target: T2, von Hippel-Lindau disease tumor suppressor/Polymerase basic protein 2 (Influenza A virus (strain A/Puerto Rico/8/1934 H1N1)) (UniProt P40337+P03428); experiment: PROTAC activity at Influenza A virus A/WSN/33(H1N1) flag tagged Polymerase basic protein 2/VHL (unknown origin) expressed in HEK293T cells assessed as degradation of PB2 expression at 0.1 to 10 uM incubated for 24 hrs by Western blotting analysis; assay type: cell-based; details: dose 0.1-10 µM
T2 sequence (P03428 whole entry, looked up): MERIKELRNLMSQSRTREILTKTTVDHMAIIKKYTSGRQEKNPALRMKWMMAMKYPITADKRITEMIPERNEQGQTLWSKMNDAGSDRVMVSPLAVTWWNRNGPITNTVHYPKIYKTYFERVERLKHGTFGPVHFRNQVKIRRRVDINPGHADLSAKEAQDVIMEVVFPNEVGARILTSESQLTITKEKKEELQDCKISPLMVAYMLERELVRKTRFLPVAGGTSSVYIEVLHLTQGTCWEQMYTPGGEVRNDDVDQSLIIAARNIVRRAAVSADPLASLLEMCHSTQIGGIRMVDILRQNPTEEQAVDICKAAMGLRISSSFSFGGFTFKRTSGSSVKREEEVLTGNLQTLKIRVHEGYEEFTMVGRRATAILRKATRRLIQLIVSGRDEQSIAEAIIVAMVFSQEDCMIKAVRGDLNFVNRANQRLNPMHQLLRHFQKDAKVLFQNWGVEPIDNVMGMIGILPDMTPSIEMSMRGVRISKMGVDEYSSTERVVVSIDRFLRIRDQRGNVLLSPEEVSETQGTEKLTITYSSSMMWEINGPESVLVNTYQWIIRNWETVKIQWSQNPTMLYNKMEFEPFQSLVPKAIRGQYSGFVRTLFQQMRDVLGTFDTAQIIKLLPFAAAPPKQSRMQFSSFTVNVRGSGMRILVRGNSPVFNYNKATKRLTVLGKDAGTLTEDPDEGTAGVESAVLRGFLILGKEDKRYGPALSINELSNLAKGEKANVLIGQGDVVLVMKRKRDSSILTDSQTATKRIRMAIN
T2 sequence (P40337 whole entry, looked up): as the sequence (P40337 whole entry, looked up) above

[13] = system: Influenza A virus; experiment: Anti-influenza activity against Influenza A virus A/WSN/33(H1N1) infected in MDCK cells assessed as downregulation of nucleoprotein expression at 100 nM incubated for 24 hrs by Western blotting analysis relative to control; assay type: functional
[14] = target: T1, von Hippel-Lindau disease tumor suppressor/Polymerase acidic protein (Influenza A virus (A/Puerto Rico/8/1934(H1N1))); experiment: PROTAC activity at Influenza A virus A/WSN/33(H1N1) flag tagged Polymerase acidic protein/VHL (unknown origin) expressed in HEK293T cells assessed as degradation of PA expression at 5 uM incubated for 24 hrs in presence of proteasome inhibitor MG-132 by Western blotting analysis; assay type: cell-based
[15] = Stability in human plasma assessed as compound remaining measured after 120 mins by LC-MS/MS analysis; assay type: ADME, cell-free; details: read-out: Stability
[16] = system: Influenza B virus; experiment: Anti-influenza activity against Influenza B virus Yamagata/16/88 infected in HEK293T cells assessed as reduction in virus-induced cytopathic effect incubated for 48 hrs by CCK-8 assay; assay type: functional, organism-based; details: Yamagata/16/88, HEK-293T
[17] = system: Enterovirus; experiment: Antiviral activity against Enterovirus 71 infected in RD cells assessed as inhibition of viral replication incubated for 24 hrs by CCK-8 assay; assay type: functional, organism-based
[18] = Hepatic clearance in human liver microsomes preincubated for 5 mins followed by NADPH addition and measured for 45 mins by LC-MS analysis; assay type: ADME, Microsome; details: time 50 min
[19] = Half life in dog liver microsomes preincubated for 5 mins followed by NADPH addition and measured for 45 mins by LC-MS analysis; assay type: ADME, Canis lupus familiaris, Microsome; details: time 50 min
[20] = target: T1, von Hippel-Lindau disease tumor suppressor/Polymerase acidic protein (Influenza A virus (A/Puerto Rico/8/1934(H1N1))); experiment: PROTAC activity at Influenza A virus A/WSN/33(H1N1) flag tagged Polymerase acidic protein/VHL (unknown origin) expressed in HEK293T cells assessed as degradation of PA expression at 5 uM incubated for 24 hrs in presence of bortezomib by Western blotting analysis; assay type: cell-based
[21] = Stability in human plasma assessed as compound remaining measured after 5 mins by LC-MS/MS analysis; assay type: ADME, cell-free; details: read-out: Stability
[22] = Half life in human liver microsomes preincubated for 5 mins followed by NADPH addition and measured for 45 mins by LC-MS analysis; assay type: ADME, Microsome; details: time 50 min
[23] = target: T1, von Hippel-Lindau disease tumor suppressor/Polymerase acidic protein (Influenza A virus (A/Puerto Rico/8/1934(H1N1))); experiment: PROTAC activity at Influenza A virus A/WSN/33(H1N1) flag tagged Polymerase acidic protein/VHL (unknown origin) expressed in HEK293T cells assessed as degradation of PA expression at 5 uM incubated for 24 hrs in presence of 3-methyladenine by Western blotting analysis; assay type: cell-based
[24] = system: Influenza B virus; experiment: Anti-influenza activity against Influenza B virus Victoria/2/87 infected in HEK293T cells assessed as reduction in virus-induced cytopathic effect incubated for 48 hrs by CCK-8 assay; assay type: functional, organism-based; details: Victoria/2/87, HEK-293T
[25] = target: T1, von Hippel-Lindau disease tumor suppressor/Polymerase acidic protein (Influenza A virus (A/Puerto Rico/8/1934(H1N1))); experiment: PROTAC activity at Influenza A virus A/WSN/33(H1N1) flag tagged Polymerase acidic protein/VHL (unknown origin) expressed in HEK293T cells assessed as degradation of PA expression at 0.02 to 10 uM incubated for 24 hrs by Western blotting analysis; assay type: cell-based; details: dose 0.02-10 µM
[26] = Intrinsic clearance in human liver microsomes preincubated for 5 mins followed by NADPH addition and measured for 45 mins by LC-MS analysis; assay type: ADME, Microsome; details: time 50 min, read-out: CLH
[27] = target: T2, von Hippel-Lindau disease tumor suppressor/Polymerase basic protein 2 (Influenza A virus (strain A/Puerto Rico/8/1934 H1N1)); experiment: PROTAC activity at Influenza A virus A/WSN/33(H1N1) flag tagged Polymerase basic protein 2/VHL (unknown origin) expressed in HEK293T cells assessed as degradation of PB2 expression at 1 ug/ml incubated for 24 hrs by Western blotting analysis; assay type: cell-based; details: dose 1.0 µg/ml
[28] = target: T1, von Hippel-Lindau disease tumor suppressor/Polymerase acidic protein (Influenza A virus (A/Puerto Rico/8/1934(H1N1))); experiment: PROTAC activity at Influenza A virus A/WSN/33(H1N1) flag tagged Polymerase acidic protein/VHL (unknown origin) expressed in HEK293T cells assessed as degradation of PA expression at 5 uM incubated for 24 hrs in presence of chloroquine by Western blotting analysis; assay type: cell-based
[29] = Binding affinity to Influenza A virus A/WSN/33(H1N1) flag tagged Polymerase acidic protein assessed as dissociation constant incubated for 48 hrs by microscale thermophoresis assay; details: hek293t
[30] = system: Influenza A virus; experiment: Anti-influenza activity against Influenza A virus A/WSN/33(H1N1) infected in MDCK cells assessed as downregulation of nucleoprotein expression incubated for 24 hrs by Western blotting analysis; assay type: functional, organism-based
[31] = target: T1, von Hippel-Lindau disease tumor suppressor/Polymerase acidic protein (Influenza A virus (A/Puerto Rico/8/1934(H1N1))); experiment: PROTAC activity at Influenza A virus A/WSN/33(H1N1) flag tagged Polymerase acidic protein/VHL (unknown origin) expressed in HEK293T cells assessed as degradation of PA expression at 10 uM incubated for 24 hrs by Western blotting analysis; assay type: cell-based

Question: Which half-life [1] does the source give for CC(C)(C)OC(=O)NCCCC[C@H](NC(=O)OC(C)(C)C)C(=O)NCCCCCCCC(=O)Nc1ccc(NC(=S)NC(=O)c2ccc(C(C)(C)C)cc2)cc1 here?
Answer: The half-life was 246 min.

Question: And the CC50 at 48 h [2]?
Answer: Its CC50 at 48 h is greater than 100000 nM.

Question: What about the remaining at 0.25 h [3] of the same compound?
Answer: Its remaining at 0.25 h is 109%.

Question: And the Activity [4]?
Answer: Its Activity is “Active”.

Question: And the CC50 at 48 h [5]?
Answer: Its CC50 at 48 h is greater than 200000 nM.

Question: And the CLint scaled [6]?
Answer: Its CLint scaled is 177 mL/min/kg.

Question: What about the CLhep predicted [7] of the same compound?
Answer: The CLhep predicted was 26.3 mL/min/kg.

Question: What about the hepatic extraction ratio at 0.75 h [8] of the same compound?
Answer: Its hepatic extraction ratio at 0.75 h is 0.654.

Question: What about the CLint scaled [9] of the same compound?
Answer: The CLint scaled was 170 mL/min/kg.

Question: And the Activity [10]?
Answer: The Activity was “inactive”.

Question: And the Activity [11]?
Answer: Its Activity is “inactive”.

Question: What about the Activity [12] of the same compound?
Answer: Its Activity is “inactive”.

Question: And the Activity [13]?
Answer: Its Activity is 35%.

Question: What about the Activity [14] of the same compound?
Answer: The Activity was “inactive”.

Question: What about the remaining at 2 h [15] of the same compound?
Answer: The remaining at 2 h was 72%.

Question: And the EC50 [16]?
Answer: Its EC50 is 73 nM.

Question: What about the Activity [17] of the same compound?
Answer: Its Activity is “Active”.

Question: And the CLhep predicted [18]?
Answer: Its CLhep predicted is 18 mL/min/kg.

Question: And the half-life [19]?
Answer: The half-life was 19.6 min.

Question: What about the Activity [20] of the same compound?
Answer: The Activity was “inactive”.

Question: And the remaining at 5 min [21]?
Answer: The remaining at 5 min was 96.8%.

Question: What about the half-life [22] of the same compound?
Answer: The half-life was 12.7 min.

Question: And the Activity [23]?
Answer: Its Activity is “inactive”.

Question: And the EC50 [24]?
Answer: The EC50 was 67 nM.

Question: What about the Activity [25] of the same compound?
Answer: The Activity was “Active”.

Question: What about the CLint scaled [26] of the same compound?
Answer: The CLint scaled was 137 mL/min/kg.

Question: And the Activity [27]?
Answer: The Activity was “inactive”.

Question: And the Activity [28]?
Answer: Its Activity is “inactive”.

Question: And the Kd [29]?
Answer: The Kd was 720 nM.

Question: And the Activity [30]?
Answer: Its Activity is “Dose-Dependent Effect”.

Question: What about the Activity [31] of the same compound?
Answer: The Activity was “Active”.
